From patent publication US20230072683A1, “PYRIDO-PYRIMIDIN DERIVATIVES AND PHARMACEUTICAL COMPOSITION, FOR USE IN PREVENTING OR TREATING PI3 KINASE RELATED DISEASES, COMPRISING SAME AS ACTIVE INGREDIENT” (BORYUNG PHARMACEUTICAL CO., LTD, priority 2019, published 2023)
Like-named read-outs stand apart in the source and are kept apart here.

Key:
[1] = target: PI3K-δ (PI3K(p1108/p857) (h)) (Homo sapiens, UniProt O00329); experiment: Evaluation of inhibitory activity against PI3K-δ (HTRF kinase assay); assay type: biochemical; conditions: for inhibition at 0.01 µM: compound concentration 0.01 μM, read-out: EXP_VALUE(% Inhibition) PI3K-δ 0.01 μM; for inhibition at 0.1 µM: read-out: EXP_VALUE(% Inhibition) PI3K-δ 0.1 μM
PI3K-δ (PI3K(p1108/p857) (h)), sequence (O00329 whole entry, the tested form may be a part): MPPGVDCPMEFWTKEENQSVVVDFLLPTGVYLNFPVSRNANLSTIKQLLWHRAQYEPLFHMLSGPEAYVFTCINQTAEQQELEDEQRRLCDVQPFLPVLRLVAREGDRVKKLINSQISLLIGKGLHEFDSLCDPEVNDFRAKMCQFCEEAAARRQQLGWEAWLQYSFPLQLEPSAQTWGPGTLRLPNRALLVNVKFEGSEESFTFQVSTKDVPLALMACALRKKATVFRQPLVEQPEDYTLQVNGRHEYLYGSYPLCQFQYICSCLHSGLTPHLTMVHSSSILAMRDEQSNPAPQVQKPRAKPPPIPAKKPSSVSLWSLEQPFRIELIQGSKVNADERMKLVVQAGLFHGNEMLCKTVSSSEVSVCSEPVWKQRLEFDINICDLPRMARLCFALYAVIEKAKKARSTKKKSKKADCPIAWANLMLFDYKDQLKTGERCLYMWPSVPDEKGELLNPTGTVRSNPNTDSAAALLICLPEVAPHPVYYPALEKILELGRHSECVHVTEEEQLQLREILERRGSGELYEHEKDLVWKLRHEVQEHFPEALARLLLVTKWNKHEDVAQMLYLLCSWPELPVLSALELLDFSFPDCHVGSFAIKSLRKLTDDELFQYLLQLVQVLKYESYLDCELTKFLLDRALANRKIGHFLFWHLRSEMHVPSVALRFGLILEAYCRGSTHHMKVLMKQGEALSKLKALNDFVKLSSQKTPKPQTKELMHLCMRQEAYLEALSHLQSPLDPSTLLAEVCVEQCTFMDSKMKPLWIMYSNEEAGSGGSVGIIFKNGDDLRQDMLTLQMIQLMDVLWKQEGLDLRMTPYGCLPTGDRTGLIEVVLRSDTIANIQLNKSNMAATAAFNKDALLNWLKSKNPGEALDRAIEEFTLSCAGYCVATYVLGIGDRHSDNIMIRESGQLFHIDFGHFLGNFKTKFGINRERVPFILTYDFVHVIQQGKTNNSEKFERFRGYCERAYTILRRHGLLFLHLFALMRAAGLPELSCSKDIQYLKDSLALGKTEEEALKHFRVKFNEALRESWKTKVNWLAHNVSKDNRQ
PI3K-δ (PI3K(p1108/p857) (h)), sequence (P27986 whole entry partner, the tested form may be a part): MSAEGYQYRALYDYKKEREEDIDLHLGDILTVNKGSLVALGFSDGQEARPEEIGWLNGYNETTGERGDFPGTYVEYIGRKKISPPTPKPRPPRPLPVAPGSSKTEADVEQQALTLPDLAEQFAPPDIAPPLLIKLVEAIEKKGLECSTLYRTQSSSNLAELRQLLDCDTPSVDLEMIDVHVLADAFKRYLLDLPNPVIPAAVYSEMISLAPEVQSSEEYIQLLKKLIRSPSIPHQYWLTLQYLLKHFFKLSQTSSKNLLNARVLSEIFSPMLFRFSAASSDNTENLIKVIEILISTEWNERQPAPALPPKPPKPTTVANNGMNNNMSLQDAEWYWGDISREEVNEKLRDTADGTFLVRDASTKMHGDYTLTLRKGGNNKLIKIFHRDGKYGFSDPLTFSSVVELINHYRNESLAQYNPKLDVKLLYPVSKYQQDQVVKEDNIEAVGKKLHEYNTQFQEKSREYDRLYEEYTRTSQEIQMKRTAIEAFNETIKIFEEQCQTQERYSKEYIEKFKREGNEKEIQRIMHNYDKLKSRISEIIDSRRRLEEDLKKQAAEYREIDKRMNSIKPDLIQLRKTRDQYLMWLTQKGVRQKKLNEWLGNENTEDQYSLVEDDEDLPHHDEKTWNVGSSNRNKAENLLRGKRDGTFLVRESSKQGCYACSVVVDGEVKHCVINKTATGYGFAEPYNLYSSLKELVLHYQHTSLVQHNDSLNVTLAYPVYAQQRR
In short: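 HTRF read-out (665/620 nm ratio ×10000) used Eu-labelled anti-GST, GST-tagged GRP1 PH domain and streptavidin-allophycocyanin after EDTA/PIP3 stop.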

DNA-PK(h) = DNA-PK(h) (Homo sapiens, UniProt P78527); experiment: Evaluation of inhibitory activity against DNA-PK (HTRF kinase assay, GST-cMyc-p53 substrate); assay type: biochemical; conditions: for inhibition at 0.01 µM: compound concentration 0.01 μM, read-out: EXP_VALUE(% Inhibition) DNA-PK(h) 0.01 μM; for inhibition at 0.1 µM: read-out: EXP_VALUE(% Inhibition) DNA-PK(h) 0.1 μM
In short: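 Human DNA-PK with 50 μM GST-cMyc-p53 substrate; reaction started with Mg/ATP, run 30 min at room temperature, stopped with EDTA. Phospho-Ser15 p53 detected by HTRF (Eu anti-phospho-Ser15, d2 anti-GST), signal = 10000×(Em 665/Em 620).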

inhibition at 0.01 µM [1] [%]	inhibition at 0.1 µM ([1]; compound concentration 0.1 μM) [%]	inhibition at 0.01 µM (DNA-PK(h)) [%]	inhibition at 0.1 µM (DNA-PK(h); compound concentration 0.1 μM) [%]	inhibition at 0.1 µM ([1]; compound at 0.1 μM) [%]	inhibition at 0.1 µM (DNA-PK(h); compound at 0.1 μM) [%]	SMILES
67	94	72	95			C[C@H](Nc1ncnc2[nH]ccc(=O)c12)c1c(Cl)c2cccc(-c3ccc(N(C)C)nc3)c2c(=O)n1-c1ccccc1 [Example 86, (S)-4-((1-(4-chloro-8-(6-(dimethylamino)pyridin-3-yl)-1-oxo-2-phenyl-1,2-dihydroisoquinolin-3-yl)ethyl)amino)pyrido[2,3-d]pyrimidin-5(8H)-one]
				85	16	C[C@H](Nc1ncnc2[nH]ccc(=O)c12)c1cc2cccc(-c3cnc(C(C)(C)O)nc3)c2c(=O)n1-c1ccccc1 [Example 386, (S)-4-((1-(8-(2-(2-hydroxypropan-2-yl)pyrimidin-5-yl)-1-oxo-2-phenyl-1,2-dihydroisoquinolin-3-yl)ethyl)amino)pyrido[2,3-d]pyrimidin-5(8H)-one]
32	82	0	57			C[C@H](Nc1ncnc2[nH]ccc(=O)c12)c1c(Cl)c2cccc(N3CCN(C)CC3)c2c(=O)n1-c1ccccc1 [Example 250, (S)-4-((1-(4-chloro-8-(4-methylpiperazin-1-yl)-1-oxo-2-phenyl-1,2-dihydroisoquinolin-3-yl)ethyl)amino)pyrido[2,3-d]pyrimidin-5(8H)-one]
				71	16	C[C@H](Nc1ncnc2[nH]ccc(=O)c12)c1c(Cl)c2cccc(-c3cnc(Cl)nc3)c2c(=O)n1-c1ccccc1 [Example 402, (S)-4-((1-(4-chloro-8-(2-chloropyrimidin-5-yl)-1-oxo-2-phenyl-1,2-dihydroisoquinolin-3-yl)ethyl)amino)pyrido[2,3-d]pyrimidin-5(8H)-one]
10		27				C[C@H](Nc1ncnc2[nH]ccc(=O)c12)c1c(Cl)c2cccc(C3=NC(C)(C)CO3)c2c(=O)n1-c1ccccc1 [Example 289, (S)-4-((1-(4-chloro-8-(4,4-dimethyl-4,5-dihydrooxazol-2-yl)-1-oxo-2-phenyl-1,2-dihydroisoquinolin-3-yl)ethyl)amino)pyrido[2,3-d]pyrimidin-5(8H)-one]
24		1				C[C@H](Nc1ncnc2[nH]ccc(=O)c12)c1c(Cl)c2cccc(-c3nc(N)nc(N)n3)c2c(=O)n1-c1ccccc1 [Example 293, (S)-4-((1-(4-chloro-8-(4,6-diamino-1,3,5-triazin-2-yl)-1-oxo-2-phenyl-1,2-dihydroisoquinolin-3-yl)ethyl)amino)pyrido[2,3-d]pyrimidin-5(8H)-one]
				67	70	C[C@H](Nc1ncnc2[nH]ccc(=O)c12)c1c(Cl)c2cccc(-c3cnc(S(C)(=N)=O)nc3)c2c(=O)n1-c1ccccc1 (stereo partly drawn) [Example 407, 4-(((1S)-1-(4-chloro-8-(2-(S-methylsulfonimidoyl)pyrimidin-5-yl)-1-oxo-2-phenyl-1,2-dihydroisoquinolin-3-yl)ethyl)amino)pyrido[2,3-d]pyrimidin-5(8H)-one]
105		93				COc1cc(-c2cccc3c(Cl)c([C@H](C)Nc4ncnc5[nH]ccc(=O)c45)n(-c4ccccc4)c(=O)c23)ccn1 [Example 150, (S)-4-((1-(4-chloro-8-(2-methoxypyridin-4-yl)-1-oxo-2-phenyl-1,2-dihydroisoquinolin-3-yl)ethyl)amino)pyrido[2,3-d]pyrimidin-5(8H)-one]
87		73				CC(C)Nc1ncc(-c2cccc3c(Cl)c([C@H](C)Nc4ncnc5[nH]ccc(=O)c45)n(-c4ccccc4)c(=O)c23)cn1 [Example 220, (S)-4-((1-(4-chloro-8-(2-(isopropylamino)pyrimidin-5-yl)-1-oxo-2-phenyl-1,2-dihydroisoquinolin-3-yl)ethyl)amino)pyrido[2,3-d]pyrimidin-5(8H)-one]
43	91	88	99			C[C@H](Nc1ncnc2[nH]ccc(=O)c12)c1c(Cl)c2cccc(C#Cc3cncnc3)c2c(=O)n1-c1ccccc1 [Example 316, (S)-4-((1-(4-chloro-1-oxo-2-phenyl-8-(pyrimidin-5-ylethynyl)-1,2-dihydroisoquinolin-3-yl)ethyl)amino)pyrido[2,3-d]pyrimidin-5(8H)-one]
22		15				C[C@H](Nc1ncnc2[nH]ccc(=O)c12)c1c(Cl)c2cccc(C(=O)NC(C)(C)C)c2c(=O)n1-c1ccccc1 [Example 285, (S)—N-(tert-butyl)-4-chloro-1-oxo-3-(1-((5-oxo-5,8-dihydropyrido[2,3-d]pyrimidin-4-yl)amino)ethyl)-2-phenyl-1,2-dihydroisoquinoline-8-carboxamide]
				87	47	C[C@H](Nc1ncnc2[nH]ccc(=O)c12)c1c(Cl)c2cccc(S(=O)(=O)C3COC3)c2c(=O)n1-c1ccccc1 [Example 432, (S)-4-((1-(4-chloro-8-(oxetan-3-ylsulfonyl)-1-oxo-2-phenyl-1,2-dihydroisoquinolin-3-yl)ethyl)amino)pyrido[2,3-d]pyrimidin-5(8H)-one]
56	89	66	94			C[C@H](Nc1ncnc2[nH]ccc(=O)c12)c1c(Cl)c2cccc(-c3cnn(CCN(C)C)c3)c2c(=O)n1-c1ccccc1 [Example 83, (S)-4-((1-(4-chloro-8-(1-(2-(dimethylamino)ethyl)-1H-pyrazol-4-yl)-1-oxo-2-phenyl-1,2-dihydroisoquinolin-3-yl)ethyl)amino)pyrido[2,3-d]pyrimidin-5(8H)-one]
114	111	82	98			C[C@H](Nc1ncnc2[nH]ccc(=O)c12)c1c(Cl)c2cccc(-c3cccc(C=O)c3)c2c(=O)n1-c1ccccc1 [Example 79, (S)-3-(4-chloro-1-oxo-3-(1-((5-oxo-5,8-dihydropyrido[2,3-d]pyrimidin-4-yl)amino)ethyl)-2-phenyl-1,2-dihydroisoquinolin-8-yl)benzaldehyde]
89	110	58	90			C[C@H](Nc1ncnc2[nH]ccc(=O)c12)c1c(C2CC2)c2cccc(Cl)c2c(=O)n1-c1ccccc1 [Example 65, (S)-4-((1-(8-chloro-4-cyclopropyl-1-oxo-2-phenyl-1,2-dihydroisoquinolin-3-yl)ethyl)amino)pyrido[2,3-d]pyrimidin-5(8H)-one]
44		81				CNC(=O)c1ccc(-c2cccc3c(Cl)c([C@H](C)Nc4ncnc5[nH]ccc(=O)c45)n(-c4ccccc4)c(=O)c23)cc1 [Example 167, (S)-4-(4-chloro-1-oxo-3-(1-((5-oxo-5,8-dihydropyrido[2,3-d]pyrimidin-4-yl)amino)ethyl)-2-phenyl-1,2-dihydroisoquinolin-8-yl)-N-methylbenzamide]
13		17				C[C@H](Nc1ncnc2[nH]ccc(=O)c12)c1c(Cl)c2cccc(NC(=O)c3ccccc3)c2c(=O)n1-c1ccccc1 [Example 299, (S)—N-(4-chloro-1-oxo-3-(1-((5-oxo-5,8-dihydropyrido[2,3-d]pyrimidin-4-yl)amino)ethyl)-2-phenyl-1,2-dihydroisoquinolin-8-yl)benzamide]
				16	5	C[C@H](Nc1ncnc2[nH]ccc(=O)c12)c1c(Cl)c2cccc(-c3cnc(F)nc3)c2c(=O)n1-c1ccccc1 [Example 382, (S)-4-((1-(4-chloro-8-(2-fluoropyrimidin-5-yl)-1-oxo-2-phenyl-1,2-dihydroisoquinolin-3-yl)ethyl)amino)pyrido[2,3-d]pyrimidin-5(8H)-one]
67		27				COc1cnc(-c2cccc3c(Cl)c([C@H](C)Nc4ncnc5[nH]ccc(=O)c45)n(-c4ccccc4)c(=O)c23)cn1 [Example 221, (S)-4-((1-(4-chloro-8-(5-methoxypyrazin-2-yl)-1-oxo-2-phenyl-1,2-dihydroisoquinolin-3-yl)ethyl)amino)pyrido[2,3-d]pyrimidin-5(8H)-one]
78	96	15	72			C[C@H](Nc1ncnc2[nH]ccc(=O)c12)c1c(Cl)c2cccc(-c3ccc(-c4ccccc4)nc3)c2c(=O)n1-c1ccccc1 [Example 115, (S)-4-((1-(4-chloro-1-oxo-2-phenyl-8-(6-phenylpyridin-3-yl)-1,2-dihydroisoquinolin-3-yl)ethyl)amino)pyrido[2,3-d]pyrimidin-5(8H)-one]
47		57				C[C@H](Nc1ncnc2[nH]ccc(=O)c12)c1c(Cl)c2cccc(-c3cnc(CC#N)nc3)c2c(=O)n1-c1ccccc1 [Example 39, (S)-2-(5-(4-chloro-1-oxo-3-(1-((5-oxo-5,8-dihydropyrido[2,3-d]pyrimidin-4-yl)amino)ethyl)-2-phenyl-1,2-dihydroisoquinolin-8-yl)pyrimidin-2-yl)acetonitrile]
